Molecular target: T1, hNLRP3 (Homo sapiens, UniProt Q96P20)
T1 construct: THP-1 cells were purchased from the American Type Culture Collection; host or cells: THP-1 cells, PMA-differentiated
Test: IL-1β production in PMA-differentiated THP-1 cells stimulated with gramicidin
Assay type: cell-based
Settings: gramicidin 5 μM, IL-1β in supernatant, Table 2
Procedure: Bioassay: IL-1β Production in PMA-Differentiated THP-1 Cells Stimulated with Gramicidin. Procedure 1:
Cell culture—THP-1 cells were purchased from the American Type Culture Collection and sub-cultured according to instructions from the supplier. Prior to experiments, cells were cultured in RPMI 1640 containing 10% heat inactivated FBS, penicillin (100 units/ml) and streptomycin (100 μg/ml), and maintained in log phase prior to experimental setup. Prior to the experiment THP-1 were treated with PMA (Phorbol 12-myristate 13-acetate) (10 μg/ml) for 24 hours. The day of the experiment the media was removed and attaching cells were treated with trypsin for 2 minutes, cells were then collected, washed with PBS (phosphate buffer saline), spin down, resuspended in 2% heat inactivated FBS with RPMI at a concentration of 1×10^6 cells/ml, and 100 ul was plated in a 96 well plate. Cells were incubated with compounds for 1 hours and then stimulated with Gramicidin (5 μM) (Enzo) for 2 hours. Cell free supernatant was collected and the production of IL-1β was evaluated by ELISA. Compounds were dissolved in dimethyl sulfoxide (DMSO) and added to the culture medium to achieve desired concentration (e.g. 100, 30, 10, 3, 1, 0.3 or 0.1 μM). A vehicle only control was run concurrently with each experiment. Final DMSO concentration was 1%.
THP-1 cells were purchased from the American Type Culture Collection and sub-cultured according to instructions from the supplier. Prior to experiments, cells were cultured in complete RPMI 1640 (containing 10% heat inactivated FBS, penicillin (100 units/ml) and streptomycin (100 μg/ml)), and maintained in log phase prior to experimental setup. Prior to the experiment THP-1 were treated with PMA (Phorbol 12-myristate 13-acetate) (20 ng/ml) for 16-18 hours. On the day of the experiment the media was removed and adherent cells were detached with trypsin for 5 minutes. Cells were then harvested, washed with complete RPMI 1640, spun down, resuspended in RPMI 1640 (containing 2% heat inactivated FBS, penicillin (100 units/ml) and streptomycin (100 μg/ml). The cells were plated in a 384-well plate at a density of 50,000 cells/well (final assay volume 50 μl). Compounds were dissolved in dimethyl sulfoxide (DMSO) and added to the culture medium to achieve desired concentration (e.g. 100, 33, 11, 3.7, 1.2, 0.41, 0.14, 0.046, 0.015, 0.0051, 0.0017 μM). Cells were incubated with compounds for 1 hour and then stimulated with gramicidin (5 μM) (Enzo) for 2 hours. Cell free supernatant was collected and the production of IL-1β was evaluated by HTRF (cisbio). A vehicle only control was run concurrently with each experiment. Final DMSO concentration was 0.38%.

T1 sequence (Q96P20 whole entry): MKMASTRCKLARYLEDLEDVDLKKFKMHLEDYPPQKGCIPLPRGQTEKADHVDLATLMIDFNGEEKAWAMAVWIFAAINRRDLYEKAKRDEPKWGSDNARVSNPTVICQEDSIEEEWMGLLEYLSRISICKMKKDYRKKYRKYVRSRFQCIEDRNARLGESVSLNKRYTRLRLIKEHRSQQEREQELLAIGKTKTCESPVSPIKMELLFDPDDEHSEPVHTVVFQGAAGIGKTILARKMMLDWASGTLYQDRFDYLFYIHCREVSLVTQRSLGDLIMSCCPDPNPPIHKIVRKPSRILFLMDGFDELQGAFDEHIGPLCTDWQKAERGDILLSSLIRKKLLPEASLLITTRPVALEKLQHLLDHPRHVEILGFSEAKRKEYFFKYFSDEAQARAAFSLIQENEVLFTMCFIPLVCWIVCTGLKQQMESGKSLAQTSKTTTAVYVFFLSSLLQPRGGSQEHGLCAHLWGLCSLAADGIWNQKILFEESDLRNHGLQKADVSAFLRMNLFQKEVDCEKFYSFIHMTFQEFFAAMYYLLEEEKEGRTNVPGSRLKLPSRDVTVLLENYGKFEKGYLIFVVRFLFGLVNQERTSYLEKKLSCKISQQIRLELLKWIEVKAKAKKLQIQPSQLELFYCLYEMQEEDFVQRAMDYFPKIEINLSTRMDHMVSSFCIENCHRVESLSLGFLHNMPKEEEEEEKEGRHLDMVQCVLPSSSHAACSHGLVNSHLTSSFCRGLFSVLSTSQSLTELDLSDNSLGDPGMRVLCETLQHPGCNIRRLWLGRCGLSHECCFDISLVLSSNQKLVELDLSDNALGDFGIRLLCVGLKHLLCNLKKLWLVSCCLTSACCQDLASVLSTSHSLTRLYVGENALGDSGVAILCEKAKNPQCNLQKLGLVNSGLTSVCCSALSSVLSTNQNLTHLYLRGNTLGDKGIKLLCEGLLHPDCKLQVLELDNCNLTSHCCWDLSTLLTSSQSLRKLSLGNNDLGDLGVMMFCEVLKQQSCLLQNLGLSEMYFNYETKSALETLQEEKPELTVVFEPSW

Compound | IC50 [nM]
CCc1cccc(CC)c1NC(=O)NS(=O)(=O)c1ncc(C(C)(C)O)s1 [Compound 172, N-(2,6-diethylphenylcarbamoyl)-5-(2-hydroxypropan-2-yl)thiazole-2-sulfonamide] | 1000 to 5000
CCc1cccc(CC)c1NC(=O)NS(=O)(=O)c1cc(C(C)(C)O)cs1 [Compound 173, N-(2,6-diethylphenylcarbamoyl)-4-(2-hydroxypropan-2-yl)thiophene-2-sulfonamide] | 15000 to 35000
CC(C)c1ccc2c(c1NC(=O)NS(=O)(=O)c1cc(C(C)(C)O)cs1)CCC2 [Compound 175, 4-(2-hydroxypropan-2-yl)-N-(5-isopropyl-2,3-dihydro-1H-inden-4-ylcarbamoyl) thiophene-2-sulfonamide] | 15000 to 35000
CC(C)(O)c1ccc(S(=O)(=O)NC(=O)Nc2c3c(c(F)c4c2CCC4)CCC3)s1 [Compound 176, N-(8-fluoro-1,2,3,5,6,7-hexahydros-indacen-4-ylcarbamoyl)-5-(2-hydroxypropan-2-yl) thiophene-2-sulfonamide] | < 1000
N#Cc1c2c(c(NC(=O)NS(=O)(=O)c3ccc(C4(O)CC4)s3)c3c1CCC3)CCC2 [Compound 178, N-(8-cyano-1,2,3,5,6,7-hexahydros-indacen-4-ylcarbamoyl)-5-(1-hydroxycyclopropyl) thiophene-2-sulfonamide] | 1000 to 5000
CC(C)c1ccc(Cl)c(C(C)C)c1NC(=O)NS(=O)(=O)c1ncc(C(C)(C)O)s1 [Compound 179, N-(3-chloro-2,6-diisopropylphenylcarbamoyl)-5-(2-hydroxypropan-2-yl)thiazole-2-sulfonamide] | 1000 to 5000
CC(C)c1ccc(Cl)c(C(C)C)c1NC(=O)NS(=O)(=O)c1cc(C(C)(C)O)cs1 [Compound 180, N-(3-chloro-2,6-diisopropylphenylcarbamoyl)-4-(2-hydroxypropan-2-yl)thiophene-2-sulfonamide] | < 1000
CC(C)c1ccc(Cl)c(C(C)C)c1NC(=O)NS(=O)(=O)c1cc(C2(O)CC2)co1 [Compound 181, N-(3-chloro-2,6-diisopropylphenylcarbamoyl)-4-(1-hydroxycyclopropyl) furan-2-sulfonamide] | < 1000
COc1ccc2c(c1NC(=O)NS(=O)(=O)c1ncc(C(C)(C)O)s1)CCC2 [Compound 182, 5-(2-hydroxypropan-2-yl)-N-(5-methoxy-2,3-dihydro-1H-inden-4-ylcarbamoyl)thiazole-2-sulfonamide] | 1000 to 5000
O=C(Nc1c2c(cc3c1CCC3)CCC2)NS(=O)(=O)c1ncc(C2(O)CCCC2)s1 [Compound 183] | < 1000
CC(C)c1cc(C#N)cc(C(C)C)c1NC(=O)NS(=O)(=O)c1ccc(C(C)(C)O)s1 [Compound 184, N-(4-cyano-2,6-diisopropylphenylcarbamoyl)-5-(2-hydroxypropan-2-yl) thiophene-2-sulfonamide] | < 1000
CC(C)c1ccc(F)c(C(C)C)c1NC(=O)NS(=O)(=O)c1ccc(C(C)(C)O)s1 [Compound 185, N-(3-fluoro-2,6-diisopropylphenylcarbamoyl)-5-(2-hydroxypropan-2-yl)thiophene-2-sulfonamide] | 1000 to 5000
CC(C)c1cccc(C(C)C)c1NC(=O)NS(=O)(=O)c1ccc(C(C)(C)O)s1 [Compound 188, N-(2,6-diisopropylphenylcarbamoyl)-5-(2-hydroxypropan-2-yl) thiophene-2-sulfonamide] | 1000 to 5000
CC(C)(O)c1ccc(S(=O)(=O)NC(=O)Nc2c3c(c(Cl)c4c2CCC4)CCC3)s1 [Compound 189, N-(8-chloro-1,2,3,5,6,7-hexahydros-indacen-4-ylcarbamoyl)-5-(2-hydroxypropan-2-yl) thiophene-2-sulfonamide] | < 1000
CC(C)(O)c1cnc(S(=O)(=O)NC(=O)Nc2cccc3c2CCC3)s1 [Compound 190, N-(2,3-dihydro-1H-inden-4-ylcarbamoyl)-5-(2-hydroxypropan-2-yl)thiazole-2-sulfonamide] | 1000 to 5000
CC(C)(O)c1csc(S(=O)(=O)NC(=O)Nc2cccc3c2CCC3)c1 [Compound 191, N-(2,3-dihydro-1H-inden-4-ylcarbamoyl)-4-(2-hydroxypropan-2-yl) thiophene-2-sulfonamide] | 1000 to 5000
O=C(Nc1cccc2c1CCC2)NS(=O)(=O)c1cc(C2(O)CC2)co1 [Compound 192, N-(2,3-dihydro-1H-inden-4-ylcarbamoyl)-4-(1-hydroxycyclopropyl) furan-2-sulfonamide] | 1000 to 5000

Other lines, results leading:

IC50 [nM] | Compound
1000 to 5000 | O=C(Nc1c2c(cc3c1CCC3)CCC2)NS(=O)(=O)c1ncc(C2(O)CCCCC2)s1 [Compound 193, N-(1,2,3,5,6,7-hexahydros-indacen-4-ylcarbamoyl)-5-(1-hydroxycyclohexyl) thiazole-2-sulfonamide]
1000 to 5000 | CC(C)c1cc(C#N)cc(C(C)C)c1NC(=O)NS(=O)(=O)c1ccc(C2(O)CC2)s1 [Compound 194, N-(4-cyano-2,6-diisopropylphenylcarbamoyl)-5-(1-hydroxycyclopropyl) thiophene-2-sulfonamide]
1000 to 5000 | CC(C)c1ccc(F)c(C(C)C)c1NC(=O)NS(=O)(=O)c1ccc(C2(O)CC2)s1 [Compound 195, N-(3-fluoro-2,6-diisopropylphenylcarbamoyl)-5-(1-hydroxycyclopropyl) thiophene-2-sulfonamide]
< 1000 | CC(C)c1cc(Cl)cc(C(C)C)c1NC(=O)NS(=O)(=O)c1ccc(C2(O)CC2)s1 [Compound 196, N-(4-chloro-2,6-diisopropylphenylcarbamoyl)-5-(1-hydroxycyclopropyl) thiophene-2-sulfonamide]
< 1000 | O=C(Nc1c2c(cc3c1CCC3)CCC2)NS(=O)(=O)c1ncc(C2(O)CCC2)s1 [Compound 197, N-(1,2,3,5,6,7-hexahydros-indacen-4-ylcarbamoyl)-5-(1-hydroxycyclo-butyl)thiazole-2-sulfonamide]
< 1000 | CC(C)c1cc(F)cc(C(C)C)c1NC(=O)NS(=O)(=O)c1ccc(C2(O)CC2)s1 [Compound 198, N-(4-fluoro-2,6-diisopropylphenylcarbamoyl)-5-(1-hydroxycyclopropyl) thiophene-2-sulfonamide]
1000 to 5000 | O=C(Nc1c2c(c(Cl)c3c1CCC3)CCC2)NS(=O)(=O)c1ccc(C2(O)CC2)s1 [Compound 199, N-(8-chloro-1,2,3,5,6,7-hexahydros-indacen-4-ylcarbamoyl)-5-(1-hydroxycyclopropyl) thiophene-2-sulfonamide]
< 1000 | O=C(Nc1c2c(c(F)c3c1CCC3)CCC2)NS(=O)(=O)c1ccc(C2(O)CC2)s1 [Compound 200]
1000 to 5000 | CC(C)c1cccc(C(C)C)c1NC(=O)NS(=O)(=O)c1ccc(C2(O)CC2)s1 [Compound 201, N-(2,6-diisopropylphenylcarbamoyl)-5-(1-hydroxycyclopropyl) thiophene-2-sulfonamide]
< 1000 | O=C(Nc1c2c(cc3c1CCC3)CCC2)NS(=O)(=O)c1ccc(C2(O)CC2)s1 [Compound 202, N-(1,2,3,5,6,7-hexahydros-indacen-4-ylcarbamoyl)-5-(1-hydroxycyclopropyl) thiophene-2-sulfonamide]
< 1000 | CC(C)c1cc(F)cc(C(C)C)c1NC(=O)NS(=O)(=O)c1cc(C2(O)CC2)cs1 [Compound 204, N-(4-fluoro-2,6-diisopropylphenyl-carbamoyl)-4-(1-hydroxycyclo-propyl)thiophene-2-sulfonamide]
